Source: paper PMC6429159, “Evolution and Biological Evaluation of Matrinic Derivatives with Amantadine Fragments As New Anti-Influenza Virus Agents” (Molecules, 2019)
Counter-ions that a name gives are not always drawn. Like-named read-outs stand apart in the source and are kept apart here.

Columns and labels:
MDCK cells [1] = conditions: lead 1, value of previous study; cited from earlier work
MDCK cells [2] = assay: Cytotoxicity assay; type: cell-based; conditions: 50% cytotoxic concentration, 48 hr
Experimental: A three-fold dilution compound was added to cell monolayer, and the cells continued to be cultivated for 48 hr, and then the CPE was recorded. The TC50 value of each compound was calculated by the methods of Reed & Muench.

[3] = tested on: influenza virus A/hanfang/359/95 (H3N2); assay: organism not typed; type: cell-based; conditions: 50% virus-inhibitory concentration after 40 hr at 37 °C, MDCK cells; – = no anti-H3N2 activity at the maximum non-toxic concentration
Kunming mice = conditions: for weight loss and behaviour: oral single dose 125, 250, 500 mg·kg^–1, seven days, compared to control; for median lethal dose (LD50): oral single dose, Kunming mice, monitored seven days
Experimental: The acute toxicity tests of the two key compounds 9f and 9j were performed in Kunming mice. Each compound was given orally in a single-dosing experiment at 125, 250, and 500 mg·kg^–1, respectively. Then, the mice were closely monitored for seven days.
Female Kunming mice with weights of 20.0 (±1.0 g) were fed with regular rodent chow, and housed in an air-conditioned room. The mice were randomly divided into different groups with 10 mice each. Each compound was given orally in a single-dosing experiment at 125, 250, or 500 mg·kg^−1, respectively. The mice were closely monitored for seven days. Body weight, as well as survival, was monitored.

IAV M2 = type: cell-based, Influenza A virus
[4] = tested on: H3N2 virus non-structural protein 1 (NS1); assay: Anti-H3N2 activity at the protein level, NS1 Western blot; type: cell-based, Influenza A virus; conditions: 40 μM, MDCK cells, MOI 0.003, 24 hr
[5] = Stability assay in whole blood; type: in vitro ADME, SD rats; conditions: 37 °C; for stability in whole blood (in words): in vitro
Experimental: The results hinted that 9f owned a good PK stability profile in blood, and it was chosen for the next investigation.
The fresh bloods were collected on the day of experiment from SD rats, and pre-warmed in a water bath at 37 °C. A concentration of 10 mM tested compound or enalapril stock solutions were prepared in DMSO, and then diluted with 45% MeOH/H2O to achieve […] dosing solutions. […] At the end of incubation, for each sample, […] water and […] of stop solution (200 ng·mL^−1 tolbutamide plus 20 ng·mL^−1 buspirone in acetonitrile) were immediately added to precipitate the protein, and centrifuged at 4000 rpm for 20 min. An aliquot of supernatant ([…]) was then extracted, mixed with […] H2O, and then shaken at 800 rpm for about 10 min before being submitted for a liquid chromatography-tandem mass […] (LC-MS/MS) analysis. The experiment was repeated twice.
Figure 3 The stability assessments of key compounds 9f and 9j in whole blood. […]

[6] = tested on: influenza virus A/Fort Monmouth/1/1947 (H1N1); assay: organism not typed; type: cell-based; conditions: MDCK cells, CPE

Structure (SMILES) | TC50 (MDCK cells [1]) [µM] | TC50 (MDCK cells [2]) [µM] | IC50 [3] [µM] | weight loss and behaviour (Kunming mice) | median lethal dose (LD50) (Kunming mice) | M2 level (IAV M2) | H3N2 virus NS1 level [4] | remaining rate of protype in whole blood ([5]; 60 min) [%] | remaining rate of protype in whole blood ([5]; 120 min) [%] | stability in whole blood (in words) [5] | IC50 [6] [µM] | remaining rate of protype in whole blood ([5]; 30 min) [%]
CCCCC1C2CCCN3CCCC(CN1Cc1ccc(C(=O)O)cc1)C23 (centres unmarked) [Compound 1, 12N-p-carboxybenzyl matrinic butane] | >540.5 | – | – | – | – | – | – | – | – | – | – | –
O=C(OCCCC[C@@H]1[C@H]2CCCN3CCC[C@@H](CN1S(=O)(=O)c1cccc(C(F)(F)F)c1)[C@@H]23)C12CC3CC(CC(Br)(C3)C1)C2 [Compound 9f, 12N-m-Trifluoromethlybenzenesulfonylmatrinicbutyl-3’-bromoadamantane-1’-carboxylate hydrochloride] | – | 75.7 ± 14.2 | 7.2 ± 1.1 | neither significant weight loss nor behavioral abnormality | higher than 500 mg·kg^–1 | significantly reduce | significantly reduce | 100 | 97.9 | high stability profile | 23.4 ± 1.5 | –
O=C(CC1CC2CCC1C2)OCCCC[C@@H]1[C@H]2CCCN3CCC[C@@H](CN1S(=O)(=O)c1cccc(C(F)(F)F)c1)[C@@H]23 (some centres unmarked) [Compound 9j, 12N-m-Trifluoromethlybenzenesulfonyl matrinic butyl-2’-norbornane acetate hydrochloride] | – | 110.3 ± 18.5 | 10.2 ± 1.8 | neither significant weight loss nor behavioral abnormality | higher than 500 mg·kg^–1 | – | significantly reduce | – | 1.3 | poor stability | 22.6 ± 1.3 | 47.7
